Columns and labels:
[1] = biological target: Syk kinase (Homo sapiens, UniProt P43405); experiment: SYK Enzymatic Assay (Z-LYTE Tyr 2 peptide); format: biochemical; details: 8 concentrations 1 μM down to 0.0003 μM
Method: Syk kinase assay are performed in vitro using Kit-Tyr 2 Peptide (Invitrogen, Cat. No. PV3191) and in a 384-well assay plate. […] The 384-well assay plate (Corning, Cat. No. 3575) is mixed and incubated at room temperature for 1 hour. 10 μL of the Development Solution (prepared by diluting Development Reagent A (Cat. No. PV3297) to 1/32 with Development Buffer (Cat. No. PV3127)) is then added to each well, mixed and incubated at room temperature for another 1 hour. The reactions are then stopped by adding 10 μL of the Stop Reagent (Invitrogen, Cat. No. PV3094), and the plate is read with Wallac 1420 VICTOR^3 Multilabel Counter (PerkinElmer™) at 445 nm and 520 nm fluorescence. All compounds are tested at 8 concentrations (1 μM down to 0.0003 μM) using a 1:3 serial dilution scheme.

[2] = test system: RBL-2H3 cells; experiment: IgE-induced Beta-hexosaminidase secretion in RBL-2H3 cells; format: cell-based; details: Rattus norvegicus, RBL-2H3, IgE-induced Beta-hexosaminidase secretion, DNP-BSA stimulation
Method: For the determination of IgE-induced Beta-hexosaminidase secretion, RBL-2H3 cells (SIBS) are seeded in 96 well plates at 4×10^4 cells per well and incubated in MEM media with 15% FBS and Glutamine ([…]) for 4 hours and sensitized with 0.5 ug/ml of SPE-7 overnight. Cells are washed 3 times with Tyrode's buffer and incubated in the presence or absence of various concentrations of the testing compound for 20 min at 37° C., 5% CO2. Cells are stimulated by adding 10 uL of DNP-BSA solution (150 ng/mL) to each well and incubating for 45 minutes at 37° C., 5% CO2. Then, 45 μL of the supernatant is taken and incubated with 100 μL of 1 mM 4-Nitrophenyl N-acetyl-β-D-glucosaminide (Sigma, Cat. No. N9376), which is diluted in 0.05 M citrate buffer (pH 4.5), for 1.5 hr at 37° C. The reactions are quenched by adding 185 μL of 0.05 M sodium carbonate buffer (pH 10.0). Plates are read at 405 nm on Multiskan (MK 3).

SMILES	IC50 [1] [nM]	IC50 [2] [nM]
CN(C)c1ccc(-c2cc3nccnc3c(O[C@@H]3CCOC3)n2)cc1 [Compound 123]	30	35
CN(CC#N)CCS(=O)(=O)N1CCO[C@H](COc2nc(-c3ccc(N(C)C)cc3)cc3nccnc23)C1 [Compound 104]	38	127
CN(C)c1ccc(-c2cc3nccnc3c(OC[C@@H]3CN(C(=O)CCC#N)CCO3)n2)cc1 [Compound 77]	85	202
CC(C)S(=O)(=O)N1CCO[C@H](COc2nc(-c3ccc(N(C)C)cc3)cc3nccnc23)C1 [Compound 89]	96	207
Cc1cc(-c2cc3nccnc3c(O[C@@H]3CCOC3)n2)ccc1N1CCOCC1 [Compound 192]	30	49
CN(C)c1ccc(-c2cc3nccnc3c(OC[C@@H]3CN(C(=O)N4CCC4)CCO3)n2)cc1 [Compound 199, (S)-azetidin-1-yl(2-(((7-(4-(dimethylamino)phenyl)pyrido[3,4-b]pyrazin-5-yl)oxy)methyl)morpholino)methanone]	88	211
C[C@@H]1CN(c2ccc(-c3cc4nccnc4c(O[C@@H]4CCOC4)n3)cc2)C[C@H](C)O1 [Compound 229]	49	94
c1cnc2c(O[C@@H]3CCOC3)nc(-c3ccc(C4CCOCC4)cc3)cc2n1 [Compound 217]	45	68
CN(C)c1ccc(-c2cc3nccnc3c(O[C@@H]3CCOC3)n2)cc1Cl [Compound 154]	43	78
CC(C)c1ccc(-c2cc3nccnc3c(OC[C@@H]3CN(C(=O)CO)CCO3)n2)cc1 [Compound 195]	63	129
COc1ccc(-c2cc3nccnc3c(OC[C@@H]3CN(S(C)(=O)=O)CCO3)n2)cc1 [Compound 38]	83	278
CS(=O)(=O)N1CCO[C@H](COc2nc(-c3ccc4[nH]ncc4c3)cc3nccnc23)C1 [Compound 203]	60	107
CC(=O)N1CCN(c2ccc(-c3cc4nccnc4c(O[C@@H]4CCOC4)n3)cc2)CC1 [Compound 152]	33	48
CNc1ccc(-c2cc3nccnc3c(OC[C@@H]3CN(C(=O)[C@H]4CCOC4)CCO3)n2)cc1 [Compound 50]	64	108
CS(=O)(=O)N1CCO[C@H](COc2nc(-c3ccc4c(c3)OCO4)cc3nccnc23)C1 [Compound 110]	211	163
CC(=O)N1CCO[C@H](COc2nc(-c3ccc(N4CCN(CCO)CC4)cc3)cc3nccnc23)C1 [Compound 49]	87	315
CC(=O)N1CCO[C@H](COc2nc(-c3ccc4c(c3)CCN4C)cc3nccnc23)C1 [Compound 189]	61	78
CC(=O)N1CCO[C@H](COc2nc(-c3ccc(C(C)(C)C#N)cc3)cc3nccnc23)C1 [Compound 248]	88	54
CS(=O)(=O)N1CCO[C@H](COc2nc(-c3ccc4ncccc4c3)cc3nccnc23)C1 [Compound 111]	117	119
CC(C)(C)c1ccc(-c2cc3nccnc3c(OC[C@@H]3CN(S(N)(=O)=O)CCO3)n2)cc1 [Compound 257]	63	160
CS(=O)(=O)N1CCO[C@H](COc2nc(-c3ccc(C4(O)CCOCC4)cc3)cc3nccnc23)C1 [Compound 314]	43	117
CN(C)c1ccc(-c2cc3nccnc3c(OC[C@@H]3CN(S(=O)(=O)C4CC4)CCO3)n2)cc1 [Compound 90]	46	61
CC(C)(C(=O)O)c1ccc(-c2cc3nccnc3c(OC[C@@H]3CN(S(C)(=O)=O)CCO3)n2)cc1 [Compound 318]	17	174
CN(C)CCc1ccc(-c2cc3nccnc3c(OC[C@@H]3CN(S(C)(=O)=O)CCO3)n2)cc1 [Compound 272]	178	

SMILES	IC50 [1] [nM]	IC50 [2] [nM]
CN(C)c1ccc(-c2cc3nccnc3c(OCC3CCCO3)n2)cc1 (stereo not shown) [Compound 168]	211	
CN(C)c1ccc(-c2cc3nccnc3c(OC[C@@H]3CN(S(=O)(=O)C4CCCCC4)CCO3)n2)cc1 [Compound 91]	474	
CC(=O)N1CCO[C@H](COc2nc(-c3ccc4c(c3)CC(=O)N4C)cc3nccnc23)C1 [Compound 171]	458	
CS(=O)(=O)N1CCN(c2ccc(-c3cc4nccnc4c(O[C@@H]4CCCOC4)n3)cc2)CC1 [Compound 179]	190	
NC(=O)c1ccc(Oc2nc(-c3ccc(N4CCOCC4)cc3)cc3nccnc23)cc1 [Compound 3, 4-(7-(4-morpholinophenyl)pyrido[4,3-b]pyrazin-5-yloxy)benzamide]	459	
CS(=O)(=O)N1CCO[C@H](COc2nc(-c3ccc(F)cc3)cc3nccnc23)C1 [Compound 44]	324	
CC(Oc1nc(-c2ccc(N(C)C)cc2)cc2nccnc12)C1CN(C(N)=O)CCO1 (stereo not shown) [Compound 234]	193	
CN(C)c1ccc(-c2cc3nccnc3c(OC[C@@H]3CN(C(=O)CCn4ccnc4)CCO3)n2)cc1 [Compound 85]	283	
CC(=O)N1CCO[C@H](COc2nc(-c3ccc(C(C)N(C)C)cc3)cc3nccnc23)C1 (stereo partly shown) [Compound 271]	741	
CC(=O)N1CCO[C@H](COc2nc(-c3ccc(C4CCNCC4)cc3)cc3nccnc23)C1 [Compound 162]	151	
CNC(=O)N1CCOC(C(C)Oc2nc(-c3ccc(N(C)C)cc3)cc3nccnc23)C1 (stereo not shown) [Compound 235]	212	
c1cnc2c(O[C@@H]3CCNC3)nc(-c3ccc(N4CCOCC4)cc3)cc2n1 [Compound 243]	300	
CC(=O)N1CCC(c2ccc(-c3cc4nccnc4c(O[C@@H]4CCCOC4)n3)cc2)CC1 [Compound 191]	115	
CC(C)C(O)c1ccc(-c2cc3nccnc3c(OC[C@@H]3CN(S(C)(=O)=O)CCO3)n2)cc1 (stereo partly shown) [Compound 287]	105	
CN(C)c1ccc(-c2cc3nccnc3c(OC[C@@H]3CN(C(=O)Cc4cccnc4)CCO3)n2)cc1 [Compound 80]	107	
COc1cc(-c2cc3nccnc3c(OC[C@@H]3CN(C(C)=O)CCO3)n2)ccc1OC(C)C [Compound 147]	115	
CC(=O)N1CCOC(C(C)Oc2nc(-c3ccc(N(C)C)cc3)cc3nccnc23)C1 (stereo not shown) [Compound 233]	386	
CC(C)S(=O)(=O)N1CCO[C@H](COc2nc(-c3ccc(N4CCOCC4)cc3)cc3nccnc23)C1 [Compound 82]	113	
CC(=O)N1CCO[C@H](COc2nc(-c3ccc(C(O)C(C)(C)C)cc3)cc3nccnc23)C1 (stereo partly shown) [Compound 285]	258	
CC(=O)N1CC(c2ccc(-c3cc4nccnc4c(OC[C@@H]4CN(C(C)=O)CCO4)n3)cc2)C1 [Compound 295, (S)-1-(2-(((7-(4-(1-acetylazetidin-3-yl)phenyl)pyrido[3,4-b]pyrazin-5-yl)oxy)methyl)morpholino)ethanone]	128	
CNC(=O)N1CCOC(C(C)Oc2nc(-c3ccc(N(C)C)cc3)cc3nccnc23)C1 (stereo not shown) [Compound 239]	451	
O=C1CCC(COc2nc(-c3ccc(N4CCOCC4)cc3)cc3nccnc23)CN1 (stereo not shown) [Compound 4, 5-(((7-(4-morpholinophenyl)pyrido[3,4-b]pyrazin-5-yl)oxy)methyl)piperidin-2-one]	160	
CC(=O)N1CCO[C@H](COc2nc(-c3ccc(C(C)(C)N)cc3)cc3nccnc23)C1 [Compound 245]	449	

— patent publication US20170152258A9, “Substituted Pyridopyrazines as Syk Inhibitors” (HUTCHISON MEDIPHARMA LIMITED, priority 2012, published 2017)
